ChEMBL document CHEMBL1201862, “PubChem BioAssay data set” (2004)
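Each compound was tested at five concentrations against cells in 96-well plates for 48 hours. Here, GI50 denotes the concentration required for 50% inhibition of growth.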 The source made the active and inactive calls. Rule as the data show it: active = GI50 up to about 1.1 µM and inactive = higher.

Tests used:
Test in all cases: NCI-60 cell line screen, 48 h
[1] = system: OVCAR-5
[2] = system: HCC 2998
[3] = system: CAKI-1
[4] = system: LOX IMVI
[5] = system: ACHN
[6] = system: OVCAR-8
[7] = system: HCT-116
[8] = system: SNB-75
[9] = system: SK-MEL-28
[10] = system: Malme-3M
[11] = system: SK-MEL-2
[12] = system: UO-31
[13] = system: NCI-H23
[14] = system: IGROV-1
[15] = system: SN12C
[16] = system: CCRF-CEM
[17] = system: RXF 393

Measured: GI50

C[C@]12CCCC(=O)C1(O)C[C@H](C(=O)O)CC2 (some centres undefined)
inactive: [1] > 100 µM | [2] > 100 µM | [3] > 100 µM | [4] > 100 µM | [5] > 100 µM | [6] > 100 µM | [7] > 100 µM | [8] > 100 µM | [9] > 100 µM | [10] > 100 µM | [11] > 100 µM | [12] > 100 µM | [13] > 100 µM | [14] > 100 µM | [15] > 100 µM | [16] > 100 µM

Cc1nc(=O)n2c(C)n[nH]c2c1C(=O)Nc1cc(Cl)cc(Cl)c1
inactive: [1] 65.3 µM | [3] 36.9 µM | [4] 36.2 µM | [5] 20 µM | [6] 45.5 µM | [7] 27.5 µM | [8] 37.2 µM | [9] 26.1 µM | [10] 30.9 µM | [12] 20.4 µM | [13] 24.6 µM | [17] 11.9 µM | [14] 24.5 µM | [15] 15.9 µM | [16] 20.2 µM

OCCC1(O)CCC(O)CC1 (centres undefined)
inactive: [1] > 100 µM | [2] > 100 µM | [4] > 100 µM | [6] > 100 µM | [7] > 100 µM | [8] 75.7 µM | [9] > 100 µM | [10] > 100 µM | [11] > 100 µM | [12] > 100 µM | [13] > 100 µM | [14] > 100 µM | [16] > 100 µM

COc1ccc(OC)c2c1C(=O)C1CC1(Br)C2=O (centres undefined)
inactive: [1] > 100 µM | [2] > 100 µM | [3] > 100 µM | [4] > 100 µM | [5] > 100 µM | [6] > 100 µM | [7] > 100 µM | [9] > 100 µM | [10] > 100 µM | [11] > 100 µM | [12] > 100 µM | [13] > 100 µM | [14] > 100 µM | [15] > 100 µM | [16] > 100 µM

O=C1CNS(=O)(=O)N1
inactive: [2] > 100 µM | [3] > 100 µM | [6] > 100 µM | [7] > 100 µM | [8] > 100 µM | [9] > 100 µM | [10] > 100 µM | [11] > 100 µM | [12] > 100 µM | [13] > 100 µM | [14] > 100 µM | [15] > 100 µM | [16] > 100 µM

Cc1ccc(NC(=O)CC2SC(Nc3cccc(Cl)c3C)=NC2=O)cc1 (centres undefined)
inactive: [1] > 100 µM | [2] 99.8 µM | [3] 71.4 µM | [4] > 100 µM | [5] 41 µM | [6] 40.6 µM | [8] > 100 µM | [9] 40.9 µM | [10] 52.4 µM | [11] 44.6 µM | [12] 22.6 µM | [13] 28.6 µM | [14] 94.8 µM | [15] 50.9 µM | [16] 32.1 µM

c1ccc2c(c1)CCc1c(-c3ccncc3)n[nH]c1-2
inactive: [1] 32.7 µM | [2] 33.1 µM | [3] 19.8 µM | [4] 23.3 µM | [5] 26.5 µM | [6] 29.4 µM | [7] 22.2 µM | [8] 26.3 µM | [9] 23.8 µM | [10] 33.5 µM | [11] 17.9 µM | [13] 19.4 µM | [14] 26.4 µM | [15] 43.5 µM | [16] 14.2 µM

N#CC1([N+](=O)[O-])C=C1c1ccccc1 (centres undefined)
inactive: [1] > 100 µM | [3] 82.4 µM | [4] 28.6 µM | [5] 38.6 µM | [6] > 100 µM | [7] 32.4 µM | [10] 63 µM | [11] > 100 µM | [12] > 100 µM | [13] > 100 µM | [14] > 100 µM | [15] > 100 µM | [16] 21.1 µM

COc1ccccc1NC(=O)C1=C(C)NC(C)=C(C(=O)Nc2ccccc2OC)C1/C=C/c1ccccc1
inactive: [1] > 100 µM | [2] > 100 µM | [3] > 100 µM | [4] > 100 µM | [5] 90.8 µM | [6] > 100 µM | [7] 48.3 µM | [8] 25.8 µM | [9] > 100 µM | [10] > 100 µM | [11] > 100 µM | [12] > 100 µM | [13] > 100 µM | [14] > 100 µM | [15] > 100 µM | [16] 49.1 µM

OC1(c2ccccc2)OC(C#Cc2ccccc2)(c2ccccc2)c2ccccc21 (centres undefined)
inactive: [1] 2.79 µM | [3] 3.85 µM | [4] 2.91 µM | [6] 2.45 µM | [7] 1.7 µM | [8] 6.1 µM | [10] 10.6 µM | [12] 1.71 µM | [13] 3.47 µM | [17] 1.95 µM | [14] 11 µM | [15] 3.25 µM | [16] 2.73 µM
